The text below walks through data of US20030166530A1, “Conjugate heat shock protein-binding peptides” (priority 1997, published 2003).

Ends that are not written are not given here.

The test system of experiment [1] is OVA-primed EL-4 target cells. In words: 51Cr release assay with effector cells from immunized mice. In kind it is in vivo, C57BL/6 mice. To be noted: mice immunized once or twice. The method, then: Preparation of hsp70 and/or peptide for use in immunization. Approximately 15 μg hsp70 and 12 μg OVA-BiP were mixed, on ice, to a final volume of 10 μL in Buffer Y (to produce a final concentration of 21.5 μM hsp70, 0.5 mM OVA-BiP, 20 mM HEPES pH 7.0, 150 mM KCl, 10 mM (NH4)2SO4, 2 mM MgCl2 and 2 mM MgADP, pH 7.0). The mixture was incubated for 30 minutes at 37° C. and was used for in vivo immunizations. Similar incubations were carried out with (i) 5 μl TiterMax adjuvant (Vaxcell, Norcross, Ga.) and 12 μg OVA-BiP (ii) 5 μl TiterMax and 5 μg OVA peptide or (iii) 12 μg OVA-BiP alone.
Preparation of cells for chromium release assay. […]
Chromium release assay. […] Supernatants were harvested and radioactivitiy released by cytotoxic activity was measured in a gamma counter. The percent specific lysis was calculated as 100×[(cpm release by CTL-cpm spontaneously released)/(cpm maximal release-cpm spontaneously released)]. Maximal release was determined by adding 1% NP-40 to lyse all cells. Spontaneous release of all target in the absence of effector cells (measured in a culture of target cells (in the absence of effector cells) maintained in parallel for the duration of the assay) was less than 20% of the maximal release.

The next experiment relates to EG7 cells. Kind of experiment: EG7 tumor cell challenge after immunization. In kind it is in vivo, C57BL/6 mice. To be noted: for tumor-free animals: eight mice per group. As for the experimental part: C57BL/6 mice, 8-10 weeks old, were immunized intradermally with one of the following (eight mice in each group): (a)5 μl TiterMax and 5 μg OVA peptide; (b) 15 μg hsp70 and 5 μg OVA peptide; (c) 5 μl TiterMax and […] (OVA-BiP); (d) 15 μg hsp70 and 12 μg OVA-BiP; (e) control (four animals only in this group); (f) 5 μg OVA peptide; or (g) 12 μg OVA-BiP. The mice then were injected with 4×10^6 EG7 cells. Tumor size was evaluated over time by measuring two diameters, the greatest diameter and the diameter perpendicular to the greatest diameter, and then calculating the average diameter. The results are shown in FIG. 8A-G (corresponding to groups a-g, as set forth above).

The conditions of experiment [2]: 17- versus 19-substituted herbimycin derivative; cited from earlier work.
Experiment [3] deals with T1, gp96 in the presence of herbimycin A (Mus musculus, UniProt P08113).
T1 construct: mouse cDNA encoding mature gp96 (i.e., wherein the endoplasmic reticulum signal peptide has been removed); made in house; host or cells: Escherichia coli BL21 (pET 11a)
Kind of experiment: Phage display affinity panning on gp96 in the presence of herbimycin A. In kind it is binding. As to conditions: 20 mM HEPES pH 7.5, 100 mM KCl, 25 mM CaCl2, 5 mM MgAcetate, TWEEN-20; herbimycin A present. As for the experimental part:
Preparation of a gp96 expression vector. The mouse cDNA encoding mature gp96 (i.e., wherein the endoplasmic reticulum signal peptide has been removed) was incorporated into the pET 11a expression vector (Novagen) as follows. Gp96 cDNA insert was prepared by polymerase chain reaction (PCR) of a pRc/CMV clone containing the cDNA using the following oligonucleotide primers: […]
Expression of gp96. pET11 gp96 was transformed into BL21 Escherichia coli cells, and plated on LB plates containing ampicillin (50μg/ml). One of the resulting colonies was used to inoculate a 20 ml overnight culture of 2×TY medium containing ampicillin (150 μg/ml). The following day, the resulting culture was spun down and the harvested bacteria were resuspended in 1 ml of fresh medium. Two one liter cultures were then each inoculated with 0.5 ml of the harvested cells and allowed to grow at 37° C. until the optical density, measured at 600 nm, was 0.5. Then, IPTG was added to a concentration of 1 mM and the cells were cultured for another 3 hours before being harvested by centrifugation. The resulting cell pellet was resuspended in 20 ml of 50 mM HEPES pH 7.5, 50 mM KCl, 5 mM MgAcetate, 20% sucrose and 1 mM PMSF. Cell extracts were prepared by pressure shearing in a French Press. The lysates were then spun at 100,000×g for 1.5 hours and the supernatant, which constituted crude gp96 extract, was collected. […]

Setting [4] is: peptide alone (without TiterMax or hsp70).

T1 sequence (P08113 22-802): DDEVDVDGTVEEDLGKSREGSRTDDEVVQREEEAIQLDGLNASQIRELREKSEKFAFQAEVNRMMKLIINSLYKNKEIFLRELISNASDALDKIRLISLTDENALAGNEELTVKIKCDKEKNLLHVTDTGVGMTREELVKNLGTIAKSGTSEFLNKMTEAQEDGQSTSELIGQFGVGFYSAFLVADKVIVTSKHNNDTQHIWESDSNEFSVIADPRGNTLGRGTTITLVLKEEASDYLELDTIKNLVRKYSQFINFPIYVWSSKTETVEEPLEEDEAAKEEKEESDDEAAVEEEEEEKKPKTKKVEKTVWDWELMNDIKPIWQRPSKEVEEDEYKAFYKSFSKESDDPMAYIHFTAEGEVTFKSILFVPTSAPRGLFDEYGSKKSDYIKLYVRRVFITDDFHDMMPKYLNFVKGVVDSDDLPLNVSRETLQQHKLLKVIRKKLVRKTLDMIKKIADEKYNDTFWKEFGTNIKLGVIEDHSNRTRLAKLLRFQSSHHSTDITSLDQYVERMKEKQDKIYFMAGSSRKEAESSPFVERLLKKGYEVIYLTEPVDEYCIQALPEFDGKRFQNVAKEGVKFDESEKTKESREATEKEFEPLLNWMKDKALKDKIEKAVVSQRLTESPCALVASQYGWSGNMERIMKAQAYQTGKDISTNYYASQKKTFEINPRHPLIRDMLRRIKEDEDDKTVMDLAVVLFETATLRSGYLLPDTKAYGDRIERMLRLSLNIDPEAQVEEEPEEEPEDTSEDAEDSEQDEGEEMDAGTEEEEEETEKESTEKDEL

Take SIINFEKLGSGHWDFAWPW [OVA-BiP]: the “OVA-specific cytotoxic immune response (killing of OVA-primed EL-4 target cells)” value in experiment [1] was “significant anti-OVA immune response”. In addition, the “tumor diameter and detectable tumor formation” value with EG7 cells (peptide administered with TiterMax adjuvant) was “superior to OVA peptide (FIG. 8A) in reducing tumor diameter and in preventing detectable tumor formation altogether”. The average tumor diameters entry in the experiment with EG7 cells (peptide alone (without TiterMax or hsp70), compared with OVA-peptide alone) is listed as “average tumor diameters were smaller”. The tumor-free animals with EG7 cells (setting [4]) was 2/8.
With 17-allylamino herbimycin, the relative activity entry in experiment [2] is listed as “more active than 19-allylamino herbimycin”.
As to “Phe-His-Trp-Trp-Trp (FHWWW; printed: Phe-His-Trp-Trp-Trp) [SEQ ID NO:320]”, the “binding of phage-expressed peptides to gp96” value in experiment [3] is recorded as “appeared to be favored”.
Take “Ser Ile Ile Asn Phe Glu Lys Leu (SIINFEKL; printed: Ser Ile Ile Asn Phe Glu Lys Leu) [OVA-peptide, reference compound]”: in the experiment with EG7 cells (setting [4]), the tumor-free animals entry is given as “no animals were tumor-free”.
